Experimental data as given in PubChem BioAssay (NCI).
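Each compound was tested at five concentrations against cells in 96-well plates for 48 hours. TGI: total growth inhibition.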

How the values were obtained:
Experiment in all cases: NCI-60 cell line screen, 48 h
NCI-H522 lung = test system: NCI-H522 lung
PC-3 prostate = test system: PC-3 prostate
IGROV1 ovarian = test system: IGROV1 ovarian
SN12C renal = test system: SN12C renal
K-562 leukemia = test system: K-562 leukemia
SNB-75 CNS = test system: SNB-75 CNS
HT29 colon = test system: HT29 colon
HL-60(TB) leukemia = test system: HL-60(TB) leukemia
SK-MEL-5 melanoma = test system: SK-MEL-5 melanoma
RPMI-8226 leukemia = test system: RPMI-8226 leukemia
NCI-H460 lung = test system: NCI-H460 lung
LOX IMVI melanoma = test system: LOX IMVI melanoma
A549 NSCLC = test system: A549 NSCLC
HOP-62 NSCLC = test system: HOP-62 NSCLC
TK-10 renal = test system: TK-10 renal
OVCAR-5 ovarian = test system: OVCAR-5 ovarian
SR leukemia = test system: SR leukemia
DU-145 prostate = test system: DU-145 prostate
MOLT-4 leukemia = test system: MOLT-4 leukemia
SK-MEL-28 melanoma = test system: SK-MEL-28 melanoma
NCI-H226 lung = test system: NCI-H226 lung
MDA-MB-231 breast = test system: MDA-MB-231 breast
UO-31 renal = test system: UO-31 renal
OVCAR-8 ovarian = test system: OVCAR-8 ovarian
BT-549 breast = test system: BT-549 breast
MDA-MB-435 = test system: MDA-MB-435
MALME-3M melanoma = test system: MALME-3M melanoma
M14 melanoma = test system: M14 melanoma
786-0 renal = test system: 786-0 renal
NCI/ADR-RES ovarian = test system: NCI/ADR-RES ovarian
CCRF-CEM leukemia = test system: CCRF-CEM leukemia
SF-295 CNS = test system: SF-295 CNS
HCT-15 colon = test system: HCT-15 colon
RXF 393 renal = test system: RXF 393 renal
T-47D breast = test system: T-47D breast
SK-MEL-2 melanoma = test system: SK-MEL-2 melanoma
HCT-116 colon = test system: HCT-116 colon
MCF7 breast = test system: MCF7 breast
MDA-N = test system: MDA-N
COLO 205 colon = test system: COLO 205 colon
OVCAR-4 ovarian = test system: OVCAR-4 ovarian
HS 578T breast = test system: HS 578T breast
KM12 colon = test system: KM12 colon
ACHN renal = test system: ACHN renal
NCI-H23 lung = test system: NCI-H23 lung
HOP-92 NSCLC = test system: HOP-92 NSCLC
UACC-257 melanoma = test system: UACC-257 melanoma
SF-268 CNS = test system: SF-268 CNS
EKVX NSCLC = test system: EKVX NSCLC
A498 renal = test system: A498 renal
HCC-2998 colon = test system: HCC-2998 colon
SW-620 colon = test system: SW-620 colon
UACC-62 melanoma = test system: UACC-62 melanoma
U251 CNS = test system: U251 CNS
OVCAR-3 ovarian = test system: OVCAR-3 ovarian
SK-OV-3 ovarian = test system: SK-OV-3 ovarian
SNB-19 CNS = test system: SNB-19 CNS
SF-539 CNS = test system: SF-539 CNS
CAKI-1 renal = test system: CAKI-1 renal
SNB-78 CNS = test system: SNB-78 CNS
DMS 114 small cell lung = test system: DMS 114 small cell lung
M19-MEL melanoma = test system: M19-MEL melanoma
KM20L2 colon = test system: KM20L2 colon
DLD-1 colon = test system: DLD-1 colon
LXFL 529 NSCLC = test system: LXFL 529 NSCLC

Measured: TGI

CC(=O)[C@@]1(O)CC[C@H]2[C@@H]3C[C@H](C)C4=CC(=O)CC[C@]4(C)[C@H]3[C@@H](O)C[C@@]21C
not listed: SNB-78 CNS | DMS 114 small cell lung | M19-MEL melanoma | KM20L2 colon | DLD-1 colon | LXFL 529 NSCLC
> 100 µM: all other assays above

COc1cccc(NC(=O)/C(CC(=O)CC(c2ccccc2)c2c(O)c3ccccc3oc2=O)=N\NC(C)(C)C)c1OC (configuration not stated)
not listed: NCI-H522 lung | PC-3 prostate | SN12C renal | HT29 colon | SR leukemia | DU-145 prostate | NCI-H226 lung | MDA-MB-231 breast | BT-549 breast | MDA-MB-435 | NCI/ADR-RES ovarian | RXF 393 renal | T-47D breast | MCF7 breast | MDA-N | HS 578T breast | NCI-H23 lung
> 100 µM: all other assays above
